Measurements published in patent publication US9615577B2, “Herbicidally active cyclic dione compounds, or derivatives therefor, substituted by a phenyl which has an alkynyl-containing substituent” (Syngenta Limited, priority 2012, dated 2017).

Assays:
Type in all cases: in vivo
[1] = tested on: Alopecurus myosuroides (ALOMY); assay: Test 1B glasshouse assay for herbicidal activity, pre-emergence; conditions: 480 h, 20 DAA, read-out: percentage phytotoxicity ALOMY
Method: (§1) Seeds of a variety of monocotyledonous and dicotyledonous test plants are sown in standard soil in pots. The plants are cultivated for one day (for pre-emergence) or for about 12 days (range=10-13 days) (for post-emergence) under controlled conditions in a glasshouse (warm climate species at 24/18° C., cool climate species at 20/16° C., both at day/night; 16 hours light; 65% humidity).
(§2) An “instant formulation”, known as the “IF50”, containing 50 g/liter (i.e. 5% w/v) of the “technical” (i.e. unformulated) active ingredient is prepared by dissolving the active ingredient in a mixture of organic solvents and emulsifier, details of which are provided in the Table below. This IF50 is then mixed with a small, variable amount of acetone to aid dissolution, before addition of a 0.2% v/v aqueous solution of the adjuvant X-77 (which is a mixture of alkyl aryl polyoxyethylene glycols and free fatty acids in isopropanol, CAS Registry number 11097-66-8), as the aqueous diluent, to form an aqueous spray solution which contains a predetermined concentration of the active ingredient (which varies depending on the application rate of the active ingredient to the plants) and 0.2% v/v of the adjuvant X-77. This aqueous spray solution is then sprayed onto the plants, after one day's cultivation (for pre-emergence) or after about 12 days' cultivation (for post-emergence).
(§3) The test plants are then grown on, in a glasshouse (greenhouse) under controlled conditions (at either 24/18° C. or 20/16° C. (day/night) as mentioned above; 16 hours light; 65% humidity) and are watered twice daily. Either 15 days after application of the herbicide (15 DAA) (for post-emergence), or 20 days after application of the herbicide (20 DAA) (for pre-emergence), the test plants are evaluated visually, and an assessed percentage phytotoxicity score is given for each herbicidal application on each plant species (where 100%=total damage to plant; 0%=no damage to plant).
(§4) Cool climate (“cool season”) grassy monocotyledonous weeds: Alopecurus myosuroides (ALOMY), Avena fatua (AVEFA), Lolium perenne (LOLPE).

[2] = tested on: Avena fatua (AVEFA); assay: as above; conditions: 480 h, 20 DAA, read-out: percentage phytotoxicity AVEFA
Method: as §1, §2, §3, §4

[3] = tested on: Lolium perenne (LOLPE); assay: as above; conditions: 480 h, 20 DAA, read-out: percentage phytotoxicity LOLPE
Method: as §1, §2, §3, §4

[4] = tested on: Alopecurus myosuroides (ALOMY); assay: Test 1A glasshouse assay for herbicidal activity, pre-emergence; conditions: 312 h, 250 g/ha, evaluated after 13 days, read-out: percentage phytotoxicity ALOMY
How it was run: (§5)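 Glasshouse spray test with visual phytotoxicity scoring (0–100%) after 13 days. Application timing: 1 day after sowing or after 8 days' cultivation, in 0.5% Tween 20 acetone/water.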

[5] = tested on: Setaria faberi (SETFA); assay: as above; conditions: 312 h, 250 g/ha, evaluated after 13 days, read-out: percentage phytotoxicity SETFA
How it was run: as §5

[6] = tested on: Echinochloa crus-galli (ECHCG); assay: as above; conditions: 312 h, 250 g/ha, evaluated after 13 days, read-out: percentage phytotoxicity ECHCG
How it was run: as §5

[7] = tested on: Amaranthus retroflexus (AMARE); assay: as above; conditions: 312 h, 250 g/ha, evaluated after 13 days, read-out: percentage phytotoxicity AMARE
How it was run: as §5

[8] = tested on: Setaria faberi (SETFA); assay: Test 1B glasshouse assay for herbicidal activity, pre-emergence; conditions: 480 h, 20 DAA, read-out: percentage phytotoxicity SETFA
Method: as §1, §2, §3
(§6) Warm climate (“warm season”) grassy monocotyledonous weeds: Setaria faberi (SETFA), SORVU (Sorghum bicolor (L.) Moench ssp. Bicolor, or Sorghum vulgare Pers.), Digitaria sanguinalis (DIGSA), Echinochloa crus-galli (ECHCG), and Brachiaria plantaginea (BRAPL).

[9] = tested on: Echinochloa crus-galli (ECHCG); assay: as above; conditions: 480 h, 20 DAA, read-out: percentage phytotoxicity ECHCG
Method: as §1, §2, §3, §6

[10] = tested on: SORVU (Sorghum bicolor (L.) Moench ssp. Bicolor, or Sorghum vulgare Pers.); assay: as above; conditions: 480 h, 20 DAA, read-out: percentage phytotoxicity SORVU
Method: as §1, §2, §3, §6

[11] = tested on: Digitaria sanguinalis (DIGSA); assay: as above; conditions: 480 h, 20 DAA, read-out: percentage phytotoxicity DIGSA
Method: as §1, §2, §3, §6

[12] = tested on: Alopecurus myosuroides (ALOMY); assay: Test 1A glasshouse assay for herbicidal activity, post-emergence; conditions: 312 h, evaluated after 13 days, read-out: percentage phytotoxicity ALOMY
How it was run: as §5

[13] = tested on: Echinochloa crus-galli (ECHCG); assay: as above; conditions: 312 h, evaluated after 13 days, read-out: percentage phytotoxicity ECHCG
How it was run: as §5

[14] = tested on: Abutilon theophasti Medik. (ABUTH); assay: as above; conditions: 312 h, evaluated after 13 days, read-out: percentage phytotoxicity ABUTH
How it was run: as §5

[15] = tested on: Amaranthus retroflexus (AMARE); assay: as above; conditions: 312 h, evaluated after 13 days, read-out: percentage phytotoxicity AMARE
How it was run: as §5

[16] = tested on: Brachiaria plantaginea (BRAPL); assay: Test 1B glasshouse assay for herbicidal activity, post-emergence; conditions: Urochloa plantaginea; for pest or weed control at 30 g/ha: 30 g/ha application rate
How it was run: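 Warm-climate glasshouse, 24/18° C., 16 h light, 65% humidity. Spray: IF50 (50 g/liter stock) in 0.2% v/v X-77; pre-emergence 1 day post-sowing, post-emergence ~12 days (10-13). Visual phytotoxicity 0-100%, at 15 DAA post, 20 DAA pre.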

Row | SMILES | pest or weed control at 250 g/ha [4] [%] | pest or weed control at 250 g/ha [5] [%] | pest or weed control at 250 g/ha [6] [%] | pest or weed control at 250 g/ha [7] [%] | pest or weed control at 30 g/ha [12] [%] | pest or weed control at 250 g/ha [12] [%] | pest or weed control at 30 g/ha [13] [%] | pest or weed control at 250 g/ha [13] [%] | pest or weed control at 30 g/ha [14] [%] | pest or weed control at 250 g/ha [14] [%] | pest or weed control at 30 g/ha [15] [%] | pest or weed control at 250 g/ha [15] [%] | further results
1 | CC#Cc1cc(Cl)c(C2C(=O)C3CCC(C3)C2=O)c(OCC)c1 (stereo not shown) [Compound A-16] | 100 | 100 | 100 | 80 | 90 | 100 | 100 | 100 | 60 | 60 | 30 | 70 | pest or weed control at 250 g/ha [1]: 50%; pest or weed control at 250 g/ha [2]: 40%; pest or weed control at 250 g/ha [3]: 70%; pest or weed control at 250 g/ha [8]: 90%; pest or weed control at 250 g/ha [9]: 80%; pest or weed control at 250 g/ha [10]: 80%; pest or weed control at 250 g/ha [11]: 100%
2 | CC#Cc1cc(Cl)c(C2C(=O)CC3(CCOCC3)CC2=O)c(OC)c1 [Compound A-20, 9-(2-Chloro-6-methoxy-4-prop-1-ynyl-phenyl)-3-oxa-spiro[5.5]undecane-8,10-dione] | 100 | 100 | 100 | 90 | 100 | 100 | 100 | 100 | 80 | 80 | 80 | 80 | pest or weed control at 8 g/ha ([12]; 8 g/ha): 90%; pest or weed control at 8 g/ha ([13]; 8 g/ha): 100%; pest or weed control at 8 g/ha ([14]; 8 g/ha): 50%; pest or weed control at 8 g/ha ([15]; 8 g/ha): 10%
3 | CC#Cc1cc(C)c(C2C(=O)CC(CC3CCOCC3)CC2=O)c(C)c1 (stereo not shown) [Compound A-9] | 100 | 100 | 100 | 100 |  | 100 |  | 100 |  |  |  | 30 | pest or weed control at 125 g/ha [1]: 80%; pest or weed control at 125 g/ha [2]: 80%; pest or weed control at 125 g/ha [3]: 100%; pest or weed control at 125 g/ha [8]: 100%; pest or weed control at 125 g/ha [9]: 90%; pest or weed control at 125 g/ha [10]: 90%; pest or weed control at 125 g/ha [11]: 100%
4 | Cc1cc(C#CCl)cc(C)c1C1C(=O)C2CCC(C2)C1=O (stereo not shown) [Compound A-6] | 100 | 100 | 100 | 30 |  | 70 |  | 100 |  |  |  | 0 | pest or weed control at 125 g/ha [1]: 60%; pest or weed control at 125 g/ha [2]: 40%; pest or weed control at 125 g/ha [3]: 80%; pest or weed control at 125 g/ha [8]: 80%; pest or weed control at 125 g/ha [9]: 60%; pest or weed control at 125 g/ha [10]: 80%; pest or weed control at 125 g/ha [11]: 100%; pest or weed control at 30 g/ha [16]: 90%; pest or weed control at 60 g/ha ([16]; 60 g/ha application rate): 100%; pest or weed control at 62.5 g/ha ([12]; 62.5 g/ha): 70%; pest or weed control at 62.5 g/ha ([13]; 62.5 g/ha): 100%; pest or weed control at 62.5 g/ha ([15]; 62.5 g/ha): 10%
5 | Cc1cc(C#CCl)cc(C)c1C1C(=O)CC(CC2CCOCC2)CC1=O (stereo not shown) [Compound A-8] | 90 | 90 | 100 | 90 |  | 80 |  | 100 |  |  |  | 40 | pest or weed control at 30 g/ha [16]: 90%
6 | CC#Cc1cc(C)c(C2C(=O)CC(CCSC)CC2=O)c(C)c1 (stereo not shown) [Compound A-21, 2-(2,6-Dimethyl-4-prop-1-ynyl-phenyl)-5-(2-methylsulfanyl-ethyl)cyclohexane-1,3-dione] | 100 | 100 | 100 | 90 | 50 | 90 | 80 | 100 | 10 | 60 | 80 | 20 | 
7 | CC#Cc1cc(Cl)c(C2C(=O)C3CCC(C)(C2=O)C3(C)C)c(OC)c1 (stereo not shown) [Compound A-17] | 90 | 90 | 100 | 60 |  | 90 |  | 100 |  | 10 |  | 0 | pest or weed control at 250 g/ha [1]: 0%; pest or weed control at 250 g/ha [2]: 60%; pest or weed control at 250 g/ha [3]: 50%; pest or weed control at 250 g/ha [8]: 50%; pest or weed control at 250 g/ha [9]: 100%; pest or weed control at 250 g/ha [10]: 50%; pest or weed control at 250 g/ha [11]: 100%
